# Biological target: T1, Zinc finger protein mex-5 (Caenorhabditis elegans, UniProt Q9XUB2)
# T1 sequence (Q9XUB2 whole entry): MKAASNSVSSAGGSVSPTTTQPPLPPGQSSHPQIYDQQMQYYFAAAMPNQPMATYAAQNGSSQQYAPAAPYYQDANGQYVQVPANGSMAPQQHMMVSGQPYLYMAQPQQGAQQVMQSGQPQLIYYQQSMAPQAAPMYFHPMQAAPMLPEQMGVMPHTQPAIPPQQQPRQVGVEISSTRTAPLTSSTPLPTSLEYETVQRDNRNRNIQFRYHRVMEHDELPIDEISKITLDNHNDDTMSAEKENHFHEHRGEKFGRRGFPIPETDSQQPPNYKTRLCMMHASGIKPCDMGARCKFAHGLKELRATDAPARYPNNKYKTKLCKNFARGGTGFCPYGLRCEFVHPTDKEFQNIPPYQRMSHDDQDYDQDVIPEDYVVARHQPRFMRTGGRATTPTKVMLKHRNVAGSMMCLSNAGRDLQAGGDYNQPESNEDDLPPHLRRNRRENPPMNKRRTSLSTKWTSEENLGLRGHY
# Test: potency of MEX-5 RNA-binding blockers – biochemical, C. elegans, fluorescence polarization, dose response (AID 1960)
row,Structure (SMILES),EC50 [µM]
1,"C[C@@H]1O[C@@H](O[C@@H]2[C@@H](O)[C@H](OCCc3ccc(O)c(O)c3)O[C@H](CO)[C@H]2OC(=O)/C=C/c2ccc(O)c(O)c2)[C@H](O)[C@H](O)[C@H]1O [((2R,3R,4R,5R,6R)-6-(3,4-dihydroxyphenethoxy)-5-hydroxy-2-(hydroxymethyl)-4-((2S,3R,4R,5R,6S)-3,4,5-trihydroxy-6-methyltetrahydro-2H-pyran-2-yloxy)tetrahydro-2H-pyran-3-yl) 3-(3,4-dihydroxyphenyl)acrylate]",9.83
2,"Oc1csc(N=NCc2cccs2)n1 [2-[2-(thiophen-2-ylmethylidene)hydrazinyl]-1,3-thiazol-4-one]",> 300
3,Cc1cc(=O)n(-c2ccc(C(=O)O)c(N)c2)[nH]1 [MLS000690508],38.3
4,Cn1cc(C=C2C(=O)NC(=O)N(c3ccccc3)C2=O)c2ccccc21 [SMR000559087],4.34
5,CCOc1cc(C2C(C(C)=O)=C(C)OC(=N)C2C#N)cc(Br)c1O (centres undefined) [2-azanyl-4-(3-bromanyl-5-ethoxy-4-oxidanyl-phenyl)-5-ethanoyl-6-methyl-4H-pyran-3-carbonitrile],12.3
6,"O=C(NN=CC1=CC(=O)C(=O)CC1)NN=CC1=CC(=O)C(=O)CC1 [1,3-bis[[(Z)-(3-hydroxy-4-oxocyclohexa-2,5-dien-1-ylidene)methyl]amino]urea]",4.86
7,"C=CC(=O)N1CCCC(n2nc(-c3ccc(Oc4ccccc4)cc3)c3c(N)ncnc32)C1 (centres undefined) [US8497277, 4]",> 300
8,c1ccc(C2=NNC(c3ccccn3)N=N2)nc1 (centres undefined) [SMR000549436],22.4
9,Cc1cc(C)cc(N2C(=O)NC(=O)C(=Cc3cccn3-c3ccc(Cl)cc3)C2=O)c1 [MLS000545741],136

# From BindingDB's records for doi:10.7270/Q2D798VP (Broad Institute, 2009)
